Results published in PubChem BioAssay (NCI).
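Dose response: 5 concentrations. Exposure: 48 h. Format: 96-well plates. Endpoint: linear interpolation; highest concentration if not reached. GI50 marks 50% less growth. At the TGI there is no net growth.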

How the values were obtained:
Test in all cases: NCI-60 cell line screen, 48 h
OVCAR-3 ovarian = test system: OVCAR-3 ovarian
SNB-75 CNS = test system: SNB-75 CNS
CAKI-1 renal = test system: CAKI-1 renal
UACC-62 melanoma = test system: UACC-62 melanoma
RPMI-8226 leukemia = test system: RPMI-8226 leukemia
NCI-H460 lung = test system: NCI-H460 lung
OVCAR-5 ovarian = test system: OVCAR-5 ovarian
SW-620 colon = test system: SW-620 colon
T-47D breast = test system: T-47D breast
HOP-62 NSCLC = test system: HOP-62 NSCLC

Row | Structure (SMILES) | TGI (OVCAR-3 ovarian) | TGI (SNB-75 CNS) | TGI (CAKI-1 renal) | TGI (UACC-62 melanoma) | TGI (RPMI-8226 leukemia) | TGI (NCI-H460 lung) | TGI (OVCAR-5 ovarian) | TGI (SW-620 colon) | GI50 (OVCAR-3 ovarian) | GI50 (SNB-75 CNS) | GI50 (CAKI-1 renal) | GI50 (UACC-62 melanoma) | GI50 (T-47D breast) | TGI (T-47D breast) | GI50 (NCI-H460 lung) | GI50 (OVCAR-5 ovarian) | GI50 (SW-620 colon) | TGI (HOP-62 NSCLC) | GI50 (RPMI-8226 leukemia) | GI50 (HOP-62 NSCLC)
1 | C/C(=N/NC(N)=S)C(CN1CCOCC1)C(C1=C(O)c2ccccc2OC1)c1ccccc1 (configuration not stated) | > 100 µM | > 100 µM | > 100 µM | > 100 µM | > 100 µM | > 100 µM | > 100 µM | > 100 µM | – | – | – | – | – | – | – | – | – | – | – | –
2 | COc1cc(N)c(Cl)cc1C(=O)N[C@@H]1CCN(CCCOc2ccc(F)cc2)C[C@@H]1OC | > 100 µM | > 100 µM | > 100 µM | > 100 µM | – | > 100 µM | > 100 µM | > 100 µM | > 100 µM | > 100 µM | > 100 µM | 67.6 µM | 27.3 µM | > 100 µM | 66.9 µM | > 100 µM | > 100 µM | – | – | –
3 | CC(NC1CCCC[C@@H]1O)c1ccccc1 (some centres not stated) | > 100 µM | > 100 µM | > 100 µM | > 100 µM | > 100 µM | > 100 µM | > 100 µM | > 100 µM | – | – | – | – | – | – | – | – | – | > 100 µM | – | –
4 | COC(=O)N[C@@H](C)CNc1nccc(-c2cn(C(C)C)nc2-c2cc(Cl)cc(NS(C)(=O)=O)c2F)n1 | > 100 µM | > 100 µM | > 100 µM | – | > 100 µM | – | > 100 µM | > 100 µM | 62.8 µM | 0.51 µM | 4.95 µM | – | > 100 µM | > 100 µM | – | > 39.2 µM | 12.1 µM | > 100 µM | > 70 µM | > 100 µM
5 | CCOC(=O)NN1C(=O)C(=P(c2ccccc2)(c2ccccc2)c2ccccc2)C(C(=O)OC)=C1C | > 100 µM | > 100 µM | > 100 µM | > 100 µM | > 100 µM | > 100 µM | > 100 µM | > 100 µM | – | – | – | – | – | – | – | – | – | > 100 µM | – | –
6 | O=C1N=C2N=C(c3ccc(Cl)cc3)N(c3ccc(Cl)cc3)N2Sc2ccccc21 | > 100 µM | > 100 µM | > 100 µM | > 100 µM | > 100 µM | > 100 µM | > 100 µM | > 100 µM | – | – | – | – | – | – | – | – | – | > 100 µM | – | –
7 | c1ccc(C2N=C(c3ccccn3)C(c3ccccn3)=NC2c2ccccc2)cc1 (configuration not stated) | > 100 µM | – | > 100 µM | > 100 µM | > 100 µM | > 100 µM | > 100 µM | > 100 µM | – | – | – | – | – | – | – | – | – | > 100 µM | – | –
8 | CC(=O)c1nc(-c2ccc(C[C@@H](CNC(=O)CN(C)C)NC(=O)c3ccc(OC(C)C)c(Cl)c3)cc2)cn1C | 13.3 µM | 13.9 µM | – | 19.1 µM | 23.2 µM | 11.8 µM | 18.6 µM | 20.4 µM | 0.0332 µM | 0.0761 µM | – | 0.0587 µM | 0.0538 µM | 20.1 µM | 0.0291 µM | 0.0618 µM | 0.0663 µM | 16.9 µM | 0.0413 µM | 0.0614 µM
9 | COC(=O)C1=C(O)c2cc(OC)c(OC)c(OC)c2C(c2ccc3c(c2)OCO3)[C@@H]1C(=O)OC (some centres not stated) | 5.3 µM | > 100 µM | > 100 µM | > 100 µM | > 100 µM | > 100 µM | > 100 µM | > 100 µM | – | – | – | – | – | – | – | – | – | > 100 µM | – | –
10 | BrCc1ccc2ccc3ccc(CBr)nc3c2n1 | 3.43 µM | 6.69 µM | 12.7 µM | > 37.8 µM | > 100 µM | 20.2 µM | 27.1 µM | 5.86 µM | – | – | – | – | – | – | – | – | – | 21 µM | – | –
11 | O=C(O)C(Cc1ccccc1)N1C(=O)/C(=C/C(Cl)=C/c2ccc([N+](=O)[O-])cc2)SC1=S (configuration not stated) | 3.51 µM | 5.37 µM | 5.09 µM | 4.85 µM | > 100 µM | – | 7.9 µM | – | 1.76 µM | 1.96 µM | 2.28 µM | 2 µM | – | – | – | 2.82 µM | – | 6.75 µM | 3.22 µM | 2.31 µM
12 | Nc1ccccc1SC(/C=C/NNC1=NC(c2ccccc2)C(c2ccccc2)=NN1)c1ccccc1 (configuration not stated) | 26.1 µM | 17.8 µM | 26.4 µM | 24.1 µM | 10.1 µM | 51.9 µM | 37.1 µM | 29.1 µM | – | – | – | – | – | – | – | – | – | 34.3 µM | – | –
13 | O=C(Nc1ccccc1)N1C(c2ccccc2)=N[C@@H](c2ccccc2)[C@@H]1c1ccccc1 | 62.8 µM | 53.5 µM | 48.7 µM | 34.7 µM | 61.3 µM | > 100 µM | 45.1 µM | 35.2 µM | – | – | – | – | – | – | – | – | – | 47.9 µM | – | –
14 | CCOc1ccc2cc(-c3nn(CC4CCN(C)CC4)c4ncnc(N)c34)ccc2c1 | 39.7 µM | 15.9 µM | 25.8 µM | 32.5 µM | 30.5 µM | 33.7 µM | 32.2 µM | 31.7 µM | 16.2 µM | 1.56 µM | 11.1 µM | 16.3 µM | – | – | 16.7 µM | 14.4 µM | 15.7 µM | – | 10.3 µM | –
15 | O=c1cc(-c2ccccc2)oc2cc(OCCCCCCCCCCOc3ccc4c(=O)cc(-c5ccccc5)oc4c3)ccc12 | > 100 µM | > 100 µM | > 100 µM | > 100 µM | > 100 µM | – | > 100 µM | > 100 µM | – | – | – | – | – | – | – | – | – | > 100 µM | – | –
16 | COc1ccc(CN2c3ccccc3Sc3ccccc32)cc1O | – | 13.3 µM | 17.7 µM | 19.4 µM | 35.5 µM | 13.4 µM | 36 µM | 17.7 µM | – | 0.18 µM | 0.472 µM | 0.682 µM | – | – | 0.444 µM | 12.7 µM | 0.504 µM | 17.4 µM | 0.483 µM | 0.384 µM
17 | C=C(c1ccccc1)c1cc2c(=O)[nH]ccc2n1C | > 100 µM | 45.6 µM | > 100 µM | > 100 µM | > 100 µM | > 100 µM | > 100 µM | > 100 µM | – | – | – | – | – | – | – | – | – | > 100 µM | – | –
18 | NCCOCCOCC(=O)O | > 100 µM | > 100 µM | > 100 µM | > 100 µM | > 100 µM | – | > 100 µM | > 100 µM | – | – | – | – | – | – | – | – | – | – | – | –
19 | O=C(O)C12C=CC(C1)c1ccccc12 (configuration not stated) | > 100 µM | – | > 100 µM | > 100 µM | > 100 µM | > 100 µM | > 100 µM | > 100 µM | – | – | – | – | – | – | – | – | – | > 100 µM | – | –
